How the values were obtained:
[1] = target: T1, folic acid reductase (binder factor) (Cavia porcellus, UniProt H0VYF1); test: Direct binding of labeled folates to the binder preparation; design: species or system guinea pig; conditions: at the concentration of reactants used in the standard curves
T1 construct: NADPH as cofactor
T1 sequence (H0VYF1 1-187): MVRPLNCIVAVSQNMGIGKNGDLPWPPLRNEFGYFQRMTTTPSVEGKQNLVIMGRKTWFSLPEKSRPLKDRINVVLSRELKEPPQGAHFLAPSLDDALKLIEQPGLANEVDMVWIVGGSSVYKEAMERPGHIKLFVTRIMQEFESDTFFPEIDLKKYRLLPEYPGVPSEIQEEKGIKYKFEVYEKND
Procedure: (§1) The binder factor or folic acid reductase was prepared from guinea pig liver according to the method of Bertino et al, "Dihydrofolate Reductase From Guinea Pig Liver And Small Intestine,"Biochemical Pharmacology 15, pages 563 - 571, 1966 modified as noted below. The livers from freshly killed guinea pigs were rinsed in cold isotonic saline, suspended in 3 volumes (weight/volume) of the same, and homogenized in an Omnimixer (Sorvall, Inc.) for two minutes at 90 volts. The pH of the homogenate was adjusted to 5.1 with 1.0 N HCl. The homogenate was centrifuged at 12,000 × G for 15 minutes, and the pellet was discarded.
Ammonium sulfate was added to the supernatant to 55% of saturation at 4°C and, when necessary, the pH was adjusted to 6.0 with 1.0 N KOH. After standing for 30 minutes at 4°C, the precipitate was collected by centrifugation for 15 minutes at 12,000 × G and discarded. The supernatant was brought to a final ammonium sulfate concentration of 70% of saturation, again keeping the pH at 6.0, and stored overnight at 4°C. The resultant precipitate was recovered by centrifugation, as above, and dissolved in a minimal volume of 0.01 M potassium phosphate buffer, pH 7.0, which was 0.01 M with respect to KCl. […]

[2] = Endogenous MTX level in serum and CSF of patients who had received MTX; format: in vivo; conditions: 6 hours to 6 days after oral, parenteral or intrathecal MTX
Procedure: (§2) The samples in Table II were assayed by sequential binding procedures in accordance with the present invention, and they were assayed at multiple dilutions as previously described.

[3] = target: T1, folic acid reductase (binder factor); test: Cofactor dependency of ^3H-MTX binding; design: species or system guinea pig; conditions: for binding of ^3H-MTX with cofactor substituted for NADPH2: 1,000 times the optimal concentration of NADPH2; for inhibition of the MTX binding reaction: NADPH2 in slight excess, until concentration reached several thousand fold excess to NADPH2
Procedure: as §1
Ammonium sulfate was added to the supernatant to 55% of saturation at 4°C and, when necessary, the pH was adjusted to 6.0 with 1.0 N KOH. After standing for 30 minutes at 4°C, the precipitate was collected by centrifugation for 15 minutes at 12,000 × G and discarded. The supernatant was brought to a final ammonium sulfate concentration of 70% of saturation, again keeping the pH at 6.0, and stored overnight at 4°C. The resultant precipitate was recovered by centrifugation, as above, and dissolved in a minimal volume of 0.01 M potassium phosphate buffer, pH 7.0, which was 0.01 M with respect to KCl. The burgundy colored solution was applied to a Sephadex G-50 column (5 × 100 cm) equilibrated in 0.01 M potassium phosphate, pH 7.0, and 0.2 M KCl; the same buffer was used for elution of the sample.
The eluted material from the column was collected in 5 ml samples, and the binder factor or folic acid reductase eluted from the column behind the excluded volume which was marked by the hemoglobin peak. Sephadex permitted a rapid removal of ammonium sulfate and also gave a partial purification of the binder. Yields of 60% to 80% of the activity present in the crude homogenate were obtained with this methodology.
The maximum binding was identical to the binding observed in the presence of 0.1 μmole NADPH2.

[4] = target: T1, folic acid reductase (binder factor); test: Specificity of the binder: competition with ^3H-MTX in direct competitive and sequential binding assays; design: species or system guinea pig; conditions: other folate derivatives up to 200 fold excess relative to ^3H-MTX
Procedure: as §1, with “discarded. […]” for “discarded.”
At the end of the first incubation period, ^3 H-MTX was added and the incubation was continued for an additional 10 minutes. […] After centrifugation for 10 minutes at 2,000 - 3,000 × G to pellet the charcoal, the radioactivity in the clear supernatant was determined by liquid scintillation counting. […]
The specificity of the binder was determined by incubating the following compounds in direct competitive and sequential binding assays with ^3 H-MTX: pteroylmonoglutamate (Folic Acid, Nutritional Biochemicals); 5-methyltetrahydrofolic acid (Sigma Chemical Co.); 5-formyltetrahydrofolicacid (Leucovorin, Lederle Co.); adenosine, guanylic acid, para-aminobenzoylglutamate and 6-carboxypterin (Sigma Chemical Co.); pteroylheptaglutamate and aminopterin.

[5] = target: T1, folic acid reductase (binder factor); test: Reliability, recovery and sensitivity of the radiochemical ligand binding assay for MTX in serum and cerebrospinal fluid; design: species or system guinea pig; conditions: presence of ascorbic acid
Procedure: as §2

[6] = format: physicochemical; conditions: 4°C, buffer A pH 6.0 with albumin
Procedure: The assay reaction is carried out in an aqueous solution of 0.01 M potassium phosphate, 0.15 M potassium chloride, pH 6.0, hereinafter referred to as buffer A. In the assay procedure, buffer A has added thereto about 1 mg of albumin per ml and other additons as noted.
As previously indicated, a binder cofactor comprising reduced nicotinamide adenine dinucleotide phosphate or NADPH2 was added to the reaction solution in the amounts noted below at the time of the assay.

Structure (SMILES): Nc1nc2ncc(CNc3ccc(C(=O)N[C@@H](CCC(=O)O)C(=O)O)cc3)nc2c(=O)[nH]1 [^3 H-folic acid]
- binding of labeled folate by the binder preparation [1]: did not bind

Structure (SMILES): [14CH3]N1c2c([nH]c(N)nc2=O)NCC1CNc1ccc(C(=O)N[C@@H](CCC(=O)O)C(=O)O)cc1 (some centres unmarked) [^14 C-5-methyltetrahydrofolic acid]
- binding of labeled folate by the binder preparation [1]: did not bind

Structure (SMILES): CN(Cc1cnc2nc(N)nc(N)c2n1)c1ccc(C(=O)N[C@@H](CCC(=O)O)C(=O)O)cc1 [MTX, N-[p-(2,4-diamino-6-pteridylmethyl)methylaminobenzoyl]-glutamic acid]
- Endogenous MTX, CSF [2]: 8 Nanograms per ml

Structure (SMILES): NC(=O)C1=CN([C@@H]2O[C@H](COP(=O)(O)OP(=O)(O)OC[C@H]3O[C@@H](n4cnc5c(N)ncnc54)[C@H](O)[C@@H]3O)[C@@H](O)[C@H]2O)C=CC1 [NADH]
- maximum binding of MTX obtained with cofactor substituted for NADPH2 ([3]; concentrations up to 200,000 times the optimal amount of NADPH2): 40%

Structure (SMILES): Nc1nc(N)c2nc(CNc3ccc(C(=O)N[C@@H](CCC(=O)O)C(=O)O)cc3)cnc2n1 [aminopterin, N-{p-[(2,4-diamino-6-pteridylmethyl)amino]benzoyl}-glutamic acid]
- competition for ^3H-MTX binding sites [4]: competed for ^3 H-MTX binding sites

Structure (SMILES): NC(=O)c1ccc[n+]([C@@H]2O[C@H](COP(=O)([O-])OP(=O)(O)OC[C@H]3O[C@@H](n4cnc5c(N)ncnc54)[C@H](OP(=O)(O)O)[C@@H]3O)[C@@H](O)[C@H]2O)c1 [NADP, Nicotinamide adenine dinucleotide phosphate]
- binding of ^3H-MTX with cofactor substituted for NADPH2 [3]: did not allow binding of ^3 H-MTX
- inhibition of the MTX binding reaction [3]: did not inhibit the binding reaction

Structure (SMILES): O=C1O[C@H]([C@@H](O)CO)C(O)=C1O [ascorbic acid]
- effect on the assay [5]: did not affect the assay

Structure (SMILES): NC(=O)c1ccc[n+]([C@@H]2O[C@H](COP(=O)([O-])OP(=O)(O)OC[C@H]3O[C@@H](n4cnc5c(N)ncnc54)[C@H](O)[C@@H]3O)[C@@H](O)[C@H]2O)c1 [NAD, nicotinamide adenine dinucleotide]
- binding of ^3H-MTX with cofactor substituted for NADPH2 [3]: did not allow binding of ^3 H-MTX
- inhibition of the MTX binding reaction [3]: did not inhibit the binding reaction

Structure (SMILES): NC(=O)C1=CN([C@@H]2O[C@H](COP(=O)(O)OP(=O)(O)OC[C@H]3O[C@@H](n4cnc5c(N)ncnc54)[C@H](OP(=O)(O)O)[C@@H]3O)[C@@H](O)[C@H]2O)C=CC1 [NADPH2, reduced nicotinamide adenine dinucleotide phosphate]
- stability in buffer A with albumin [6]: stable for several days

Reference: patent US3981983A, “Rapid, radiochemical-ligand binding assay for methotrexate” (priority 1975, dated 1976)
